Tests used:
Assay in all cases: relative viability (nuclei count vs DMSO), 5 days (fraction); higher = more cells survive
Linsitinib + Vorinostat = compound: C[C@]1(O)C[C@@H](c2nc(-c3ccc4ccc(-c5ccccc5)nc4c3)c3c(N)nccn32)C1 [Linsitinib] + O=C(CCCCCCC(=O)Nc1ccccc1)NO [Vorinostat] (partner 1 µM)
Summary of the method: (§1)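 One day after seeding in 1536-well plates, lung cancer cell lines were dosed by pin tool. Dosing was either single-drug or a fixed anchor-drug dose plus five library-drug doses (not always all listed) in √10 steps. After 5 days, nuclei were stained in one fix-and-stain step and counted on 4× images, and relative viability is the nuclei count of treated wells over that of vehicle wells, given as the median of duplicate plates.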

Ispinesib + Palbociclib = compound: Cc1ccc(C(=O)N(CCCN)[C@@H](c2nc3cc(Cl)ccc3c(=O)n2Cc2ccccc2)C(C)C)cc1 [Ispinesib] + CC(=O)c1c(C)c2cnc(Nc3ccc(N4CCNCC4)cn3)nc2n(C2CCCC2)c1=O [Palbociclib] (partner 0.5 µM)
Summary of the method: as §1

Ispinesib + Linsitinib = compound: Cc1ccc(C(=O)N(CCCN)[C@@H](c2nc3cc(Cl)ccc3c(=O)n2Cc2ccccc2)C(C)C)cc1 [Ispinesib] + C[C@]1(O)C[C@@H](c2nc(-c3ccc4ccc(-c5ccccc5)nc4c3)c3c(N)nccn32)C1 [Linsitinib] (partner 1 µM)
Summary of the method: as §1

Linsitinib + Lapatinib = compound: C[C@]1(O)C[C@@H](c2nc(-c3ccc4ccc(-c5ccccc5)nc4c3)c3c(N)nccn32)C1 [Linsitinib] + CS(=O)(=O)CCNCc1ccc(-c2ccc3ncnc(Nc4ccc(OCc5cccc(F)c5)c(Cl)c4)c3c2)o1 [Lapatinib] (partner 2 µM)
Summary of the method: as §1

Cell Line | relative viability (Linsitinib + Vorinostat; first compound 0.01 µM) | relative viability (Linsitinib + Vorinostat; first compound 0.03162 µM) | relative viability (Linsitinib + Vorinostat; first compound 0.1 µM) | relative viability (Linsitinib + Vorinostat; first compound 0.3162 µM) | relative viability (Linsitinib + Vorinostat; first compound 1 µM) | relative viability (Ispinesib + Palbociclib; first compound 0.001 µM) | relative viability (Ispinesib + Palbociclib; first compound 0.003162 µM) | relative viability (Ispinesib + Palbociclib; first compound 0.01 µM) | relative viability (Ispinesib + Palbociclib; first compound 0.03162 µM) | relative viability (Ispinesib + Palbociclib; first compound 0.1 µM) | relative viability (Ispinesib + Linsitinib; first compound 0.001 µM) | relative viability (Ispinesib + Linsitinib; first compound 0.003162 µM) | relative viability (Ispinesib + Linsitinib; first compound 0.01 µM) | relative viability (Ispinesib + Linsitinib; first compound 0.03162 µM) | relative viability (Ispinesib + Linsitinib; first compound 0.1 µM) | relative viability (Linsitinib + Lapatinib; first compound 0.01 µM) | relative viability (Linsitinib + Lapatinib; first compound 0.03162 µM) | relative viability (Linsitinib + Lapatinib; first compound 0.1 µM) | relative viability (Linsitinib + Lapatinib; first compound 0.3162 µM) | relative viability (Linsitinib + Lapatinib; first compound 1 µM)
LCLC-103H | 0.775 | 0.68 | 0.836 | 0.429 | 0.605 | 0.447 | 0.545 | 0.476 | 0.441 | 0.465 | 1.12 | 1.25 | 1.21 | 1.04 | 1.02 | – | – | – | – | –
EBC-1 | – | – | – | – | – | – | – | – | – | – | 0.926 | 1.04 | 1.04 | 0.8 | 0.187 | 0.259 | 0.26 | 0.248 | 0.244 | 0.2
NCI-H1703 | – | – | – | – | – | – | – | – | – | – | 0.742 | 0.64 | 0.504 | 0.106 | 0.0823 | 1.06 | – | 1.52 | 1.38 | 1.09
NCI-H1563 | – | – | – | – | – | – | – | – | – | – | 1.29 | 1.19 | 1.27 | 1.1 | 0.844 | 0.949 | 1.05 | 1.03 | 0.591 | 0.856
NCI-H1299 | – | – | – | – | – | – | – | – | – | – | 1.06 | 1.12 | 0.81 | 0.941 | 0.375 | 0.989 | 0.89 | 0.996 | 0.952 | 1.01
NCI-H596 | 0.583 | 0.584 | 0.597 | 0.49 | 0.593 | – | – | – | – | – | 1.29 | 0.988 | 1.17 | 1.06 | 0.551 | 1.05 | 1.07 | 1.05 | 0.965 | 0.991
NCI-H2170 | 0.771 | 0.771 | 0.753 | – | 0.696 | 0.402 | 0.36 | 0.431 | 0.282 | 0.257 | – | – | – | – | – | 0.266 | 0.256 | 0.276 | 0.256 | 0.228
A549 | – | – | – | – | – | – | – | – | – | – | 0.628 | 0.551 | 0.769 | 0.434 | 0.0756 | 0.981 | 1.02 | 0.816 | 0.783 | 0.443
NCI-H2342 | 0.689 | 0.707 | 0.764 | 0.727 | 0.756 | 0.571 | 0.539 | 0.556 | 0.541 | 0.522 | – | – | – | – | – | – | – | – | – | –
NCI-H1650 | 0.51 | 0.505 | 0.621 | 0.386 | 0.377 | 0.368 | 0.346 | 0.3 | 0.172 | 0.254 | – | – | – | – | – | 0.8 | 0.84 | 0.777 | 0.164 | 0.481
SW 900 | 0.627 | 0.436 | 0.458 | 0.285 | 0.272 | 0.566 | 0.638 | 0.609 | 0.624 | 0.321 | – | – | – | – | – | – | – | – | – | –
NCI-H1648 | 0.605 | 0.412 | 0.551 | 0.211 | 0.57 | 0.285 | 0.297 | 0.248 | 0.291 | 0.256 | – | – | – | – | – | – | – | – | – | –
Calu-6 | – | – | – | – | – | – | – | – | – | – | 0.998 | – | 0.712 | 0.297 | 0.133 | 0.98 | 0.949 | 1.18 | 0.985 | 0.947

Source: the supplement of paper PMC10307832
